Measured values reported in patent US10786542B2 (priority 2016, dated 2020).
Read-outs that look alike come from different tables or passages of the source.

Columns and labels:
[1] = system: A549 cells; experiment: cells; format: cell-based; conditions: for IC50: Homo sapiens
[2] = molecular target: MRP1 (Homo sapiens, UniProt P33527); experiment: cell-based
[3] = system: HEK control cells; experiment: cells; format: cell-based; conditions: Homo sapiens
[4] = in vitro; conditions: human, IC50 etoposide-induced growth inhibition
[5] = A549, read-out: IC50 growth inhibition, co-treatment with 10 nM HN2
[6] = A549, read-out: IC50 growth inhibition, drug alone

MRP1, sequence (P33527 whole entry): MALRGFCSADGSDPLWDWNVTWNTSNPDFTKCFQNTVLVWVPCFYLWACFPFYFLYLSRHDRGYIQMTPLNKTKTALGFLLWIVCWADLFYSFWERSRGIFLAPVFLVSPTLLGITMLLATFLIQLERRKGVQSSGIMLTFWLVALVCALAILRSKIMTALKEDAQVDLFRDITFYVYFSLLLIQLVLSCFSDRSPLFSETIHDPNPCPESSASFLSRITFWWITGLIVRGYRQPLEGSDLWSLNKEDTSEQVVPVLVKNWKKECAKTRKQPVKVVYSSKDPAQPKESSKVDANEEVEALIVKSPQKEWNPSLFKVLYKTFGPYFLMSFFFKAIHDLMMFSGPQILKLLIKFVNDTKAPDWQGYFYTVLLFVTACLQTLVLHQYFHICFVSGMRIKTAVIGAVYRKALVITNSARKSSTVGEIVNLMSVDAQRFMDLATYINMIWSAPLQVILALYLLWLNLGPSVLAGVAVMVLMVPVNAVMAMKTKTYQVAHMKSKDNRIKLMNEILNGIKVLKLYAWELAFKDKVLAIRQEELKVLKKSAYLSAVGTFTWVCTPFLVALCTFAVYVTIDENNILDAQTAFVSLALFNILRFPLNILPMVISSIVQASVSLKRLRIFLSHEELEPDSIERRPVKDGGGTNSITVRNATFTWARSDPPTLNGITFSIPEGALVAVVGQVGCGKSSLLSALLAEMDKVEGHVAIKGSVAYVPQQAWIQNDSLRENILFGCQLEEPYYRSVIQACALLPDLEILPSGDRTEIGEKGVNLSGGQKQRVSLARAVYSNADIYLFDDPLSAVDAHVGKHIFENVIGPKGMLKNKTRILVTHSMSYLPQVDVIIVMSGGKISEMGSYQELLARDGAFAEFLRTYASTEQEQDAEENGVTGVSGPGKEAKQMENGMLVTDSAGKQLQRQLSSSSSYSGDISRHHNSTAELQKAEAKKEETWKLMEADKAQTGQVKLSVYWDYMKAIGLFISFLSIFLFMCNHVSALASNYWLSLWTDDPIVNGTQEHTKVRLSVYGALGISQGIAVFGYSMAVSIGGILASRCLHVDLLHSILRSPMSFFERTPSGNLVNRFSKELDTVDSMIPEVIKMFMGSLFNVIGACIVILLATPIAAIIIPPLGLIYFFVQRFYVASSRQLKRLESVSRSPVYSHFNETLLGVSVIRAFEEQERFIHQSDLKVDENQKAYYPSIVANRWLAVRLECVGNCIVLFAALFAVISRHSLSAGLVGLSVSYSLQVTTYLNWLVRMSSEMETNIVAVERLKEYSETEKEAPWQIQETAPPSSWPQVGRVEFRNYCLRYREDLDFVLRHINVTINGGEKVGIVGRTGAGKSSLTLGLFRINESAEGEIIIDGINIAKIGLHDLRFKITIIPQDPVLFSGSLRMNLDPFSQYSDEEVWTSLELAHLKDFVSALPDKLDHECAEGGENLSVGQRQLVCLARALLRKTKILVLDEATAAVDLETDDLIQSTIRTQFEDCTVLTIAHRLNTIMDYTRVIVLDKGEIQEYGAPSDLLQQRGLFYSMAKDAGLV

SMILES | IC50 [1, 5] [nM] | IC50 [1, 6] [nM] | further results
CN(C)C(=O)CCSC(SCCC(=O)O)c1cccc(/C=C/c2ccc3ccc(Cl)cc3n2)c1 (stereo not drawn) [MK-571] |  |  | Increase in sensitivity to MRP1 substrate drugs [1]: six-fold
CN(Cc1cnc2nc(N)nc(N)c2n1)c1ccc(C(=O)N[C@@H](CCC(=O)O)C(=O)O)cc1 [Methotrexate, methotrexate] | 48 | 230 | 
CC[C@]1(O)C[C@H]2CN(CCc3c([nH]c4ccccc34)[C@@](C(=O)OC)(c3cc4c(cc3OC)N(C=O)[C@H]3[C@@](O)(C(=O)OC)[C@H](OC(C)=O)[C@]5(CC)C=CCN6CC[C@]43[C@@H]65)C2)C1 [Vincristine, vincristine] | 45 | 360 | 
CCOC(=O)C#CC(=O)OCC [diethyl acetylenedicarboxylate] |  |  | IC50 [2]: 6 nM
COc1cc([C@@H]2c3cc4c(cc3[C@@H](O[C@@H]3O[C@@H]5CO[C@@H](C)O[C@H]5[C@H](O)[C@H]3O)[C@H]3COC(=O)[C@H]23)OCO4)cc(OC)c1O [etoposide] | 75 | 1000 | IC50 ([3]; read-out: IC50 etoposide-induced growth inhibition, co-treatment with 3 nM HN2): 47 nM; IC50 ([3]; read-out: IC50 etoposide-induced growth inhibition, etoposide alone): 55 nM; IC50 ([4]; co-treated with 10 nM HN2): 42 nM; IC50 ([4]; etoposide alone): 960 nM
